How the values were obtained:
[1] = target: T1, hCav3.2 (Homo sapiens, UniProt O95180); assay: PatchXpress patch clamp, voltage dependent block (half-inactivated state); assay type: cell-based
T1 construct: expressed in transfected cells; host or cells: HEK-293
Procedure: The voltage dependence of calcium channel isoforms was determined by comparing the activity of resting (Tonic Block) and half-inactivated (Voltage Dependent Block) voltages across various concentrations of Formula (II). First, HEK-293 cells containing hCav3.1, hCav3.2, or hCav3.3 calcium channel isoforms were prepared by seeding at 2×10^6 cells per flask in culture for 2 days; the cells were then harvested at about 6×10^6 cells. Harvested cells were washed once in DPBS for approximately 30 minutes, and 1 mL of 1× (0.05%) Trypsin-EDTA was added, swirled, and allowed to sit on the cells for approximately 4 minutes. […]
Pharmacology was measured during Epoch 1. Percent inhibition was calculated as: 100*((([Step 2+Step 5]/2)−Step3)/(Step 2+Step 5/2)), wherein Step 2 is the peak current measured at baseline, Step 5 is the current measured during the wash period, and Step 3 is the peak current measured during application of the compound. […]
The effect of the compound on peak current amplitude was monitored using the voltage protocol described above and washed out after reaching steady state as determined by PatchXpress stability scripts. […] Washout current for the calculation of inhibition was determined by resetting the holding potential to the previously determined half-inactivation potential (V0.5) and measuring peak current from this holding potential. […]

[2] = Within-participant escalating dose trial Part A: safety and tolerability; assay type: in vivo, human; conditions: N = 8
Procedure: In Part A, an open label trial was conducted.

[3] = clinical; conditions: both, human, plasma, oral, 120 mg
Procedure: Each participant completed 3 study periods: Screening, Treatment period (12 or 31 days), and Safety follow-up.
Participants were healthy males and females between the ages of 18 and 55 years old.
In Part B, a randomized controlled trial was conducted.

T1 sequence (O95180 whole entry): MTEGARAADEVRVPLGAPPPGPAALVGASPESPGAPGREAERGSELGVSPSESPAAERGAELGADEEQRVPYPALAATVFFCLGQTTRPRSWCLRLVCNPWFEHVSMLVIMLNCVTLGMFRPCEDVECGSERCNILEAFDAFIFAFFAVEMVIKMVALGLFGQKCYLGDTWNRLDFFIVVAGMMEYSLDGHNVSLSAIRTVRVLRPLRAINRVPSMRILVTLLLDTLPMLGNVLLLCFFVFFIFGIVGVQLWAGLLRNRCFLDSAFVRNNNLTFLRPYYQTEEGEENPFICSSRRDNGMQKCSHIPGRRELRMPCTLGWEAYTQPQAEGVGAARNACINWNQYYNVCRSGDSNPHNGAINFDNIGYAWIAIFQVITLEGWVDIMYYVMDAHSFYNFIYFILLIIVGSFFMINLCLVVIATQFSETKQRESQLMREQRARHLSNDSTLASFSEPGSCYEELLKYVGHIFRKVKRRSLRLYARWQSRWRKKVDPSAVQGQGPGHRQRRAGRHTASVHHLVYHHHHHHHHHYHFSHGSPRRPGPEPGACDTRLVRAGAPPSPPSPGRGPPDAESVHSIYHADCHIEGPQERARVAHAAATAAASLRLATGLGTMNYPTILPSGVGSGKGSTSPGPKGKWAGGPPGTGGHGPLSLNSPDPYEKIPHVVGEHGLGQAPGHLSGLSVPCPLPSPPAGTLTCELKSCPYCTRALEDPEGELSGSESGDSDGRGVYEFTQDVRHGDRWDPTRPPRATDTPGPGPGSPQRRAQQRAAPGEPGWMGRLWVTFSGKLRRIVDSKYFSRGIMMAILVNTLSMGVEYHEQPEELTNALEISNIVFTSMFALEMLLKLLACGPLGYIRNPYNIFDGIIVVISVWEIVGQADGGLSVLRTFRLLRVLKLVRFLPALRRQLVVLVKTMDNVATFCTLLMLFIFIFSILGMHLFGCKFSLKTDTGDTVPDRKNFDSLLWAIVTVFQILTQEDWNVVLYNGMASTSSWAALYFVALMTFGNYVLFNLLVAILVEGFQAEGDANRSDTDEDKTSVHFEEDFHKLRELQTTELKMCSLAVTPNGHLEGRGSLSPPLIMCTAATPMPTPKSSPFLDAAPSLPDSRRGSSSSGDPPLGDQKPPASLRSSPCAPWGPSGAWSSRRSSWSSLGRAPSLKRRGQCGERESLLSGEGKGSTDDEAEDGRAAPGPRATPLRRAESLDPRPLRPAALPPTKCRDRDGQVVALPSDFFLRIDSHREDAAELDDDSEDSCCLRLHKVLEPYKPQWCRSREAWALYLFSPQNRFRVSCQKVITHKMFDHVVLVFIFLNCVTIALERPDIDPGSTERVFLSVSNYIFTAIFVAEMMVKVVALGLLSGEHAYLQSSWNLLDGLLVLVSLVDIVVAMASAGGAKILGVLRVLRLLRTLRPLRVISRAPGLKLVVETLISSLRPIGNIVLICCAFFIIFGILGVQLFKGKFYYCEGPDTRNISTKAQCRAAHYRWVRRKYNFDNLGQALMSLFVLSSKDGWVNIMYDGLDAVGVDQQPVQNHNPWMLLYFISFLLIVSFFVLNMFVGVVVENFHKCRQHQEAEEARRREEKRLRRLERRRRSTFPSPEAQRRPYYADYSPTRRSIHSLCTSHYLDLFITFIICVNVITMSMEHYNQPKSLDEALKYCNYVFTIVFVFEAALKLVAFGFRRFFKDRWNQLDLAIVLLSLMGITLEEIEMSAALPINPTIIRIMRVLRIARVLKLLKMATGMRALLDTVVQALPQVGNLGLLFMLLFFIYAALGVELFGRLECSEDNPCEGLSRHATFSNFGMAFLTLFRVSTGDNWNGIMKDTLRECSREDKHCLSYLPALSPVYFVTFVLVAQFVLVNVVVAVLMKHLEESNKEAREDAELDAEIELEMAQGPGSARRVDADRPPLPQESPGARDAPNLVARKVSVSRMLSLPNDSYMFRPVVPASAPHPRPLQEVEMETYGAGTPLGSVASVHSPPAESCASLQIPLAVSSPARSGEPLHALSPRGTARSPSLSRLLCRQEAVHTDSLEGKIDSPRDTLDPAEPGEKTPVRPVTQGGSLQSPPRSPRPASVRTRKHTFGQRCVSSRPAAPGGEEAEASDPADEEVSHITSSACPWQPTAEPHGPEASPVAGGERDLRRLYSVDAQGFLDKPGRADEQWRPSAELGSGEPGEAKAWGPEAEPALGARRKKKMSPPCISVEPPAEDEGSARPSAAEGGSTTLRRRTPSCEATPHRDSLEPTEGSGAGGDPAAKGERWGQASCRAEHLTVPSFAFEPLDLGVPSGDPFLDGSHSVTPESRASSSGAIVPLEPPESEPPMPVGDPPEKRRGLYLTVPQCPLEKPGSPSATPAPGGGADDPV

SMILES: CC(C)(C)NC(=O)CN1CCC(CNC(=O)c2cc(F)cc(Cl)c2)CC1.Cl [compound of formula (II), N-((1-(2-(tert-butylamino)-2-oxoethyl)piperidin-4-yl)methyl)-3-chloro-5-fluorobenzamide hydrochloride]
- tonic block/voltage dependent block (TB/VDB) ratio [1]: 2.0

SMILES: CC(C)(C)NC(=O)CN1CCC(CNC(=O)c2cc(F)cc(Cl)c2)CC1 [compound of formula (I), N-((1-(2-(tert-butylamino)-2-oxoethyl)piperidin-4-yl)methyl)-3-chloro-5-fluorobenzamide]
- Dry eye ([2]; 5 mg): 1 (12.5%) n (%)
- Eye disorders ([2]; 5 mg): 2 (25.0%) n (%)
- General Disorders and Administration Site Conditions ([2]; 5 mg): 3 (37.5%) n (%)
- Headache ([2]; 5 mg): 2 (25.0%) n (%)
- Lethargy ([2]; 5 mg): 1 (12.5%) n (%)
- Medical device site dermatitis ([2]; 5 mg): 1 (12.5%) n (%)
- Nervous System Disorders ([2]; 5 mg): 2 (25.0%) n (%)
- Participants with at least one TEAE ([2]; 5 mg): 5 (62.5%) n (%)
- Vessel puncture site thrombosis ([2]; 5 mg): 1 (12.5%) n (%)
- Dry eye ([2]; 10 mg): 2 (25.0%) n (%)
- Eye disorders ([2]; 10 mg): 2 (25.0%) n (%)
- General Disorders and Administration Site Conditions ([2]; 10 mg): 3 (37.5%) n (%)
- Headache ([2]; 10 mg): 0 n (%)
- Lethargy ([2]; 10 mg): 0 n (%)
- Medical device site dermatitis ([2]; 10 mg): 2 (25.0%) n (%)
- Nervous System Disorders ([2]; 10 mg): 0 n (%)
- Participants with at least one TEAE ([2]; 10 mg): 5 (62.5%) n (%)
- Vessel puncture site thrombosis ([2]; 10 mg): 1 (12.5%) n (%)
- Dry eye ([2]; 20 mg): 0 n (%)
- Eye disorders ([2]; 20 mg): 0 n (%)
- General Disorders and Administration Site Conditions ([2]; 20 mg): 1 (12.5%) n (%)
- Headache ([2]; 20 mg): 1 (12.5%) n (%)
- Medical device site dermatitis ([2]; 20 mg): 0 n (%)
- Nervous System Disorders ([2]; 20 mg): 1 (12.5%) n (%)
- Participants with at least one TEAE ([2]; 20 mg): 3 (37.5%) n (%)
- Vessel puncture site thrombosis ([2]; 20 mg): 0 n (%)
- Dry eye ([2]; Overall 5-20 mg): 3 (37.5%) n (%)
- Eye disorders ([2]; Overall 5-20 mg): 3 (37.5%) n (%)
- Headache ([2]; Overall 5-20 mg): 3 (37.5%) n (%)
- Lethargy ([2]; Overall 5-20 mg): 2 (25.0%) n (%)
- Medical device site dermatitis ([2]; Overall 5-20 mg): 3 (37.5%) n (%)
- Nervous System Disorders ([2]; Overall 5-20 mg): 3 (37.5%) n (%)
- Participants with at least one TEAE ([2]; Overall 5-20 mg): 7 (87.5%) n (%)
- Vessel puncture site thrombosis ([2]; Overall 5-20 mg): 2 (25.0%) n (%)
- AUC [3]: ≥ 4650 ng·h/mL
- Cmax [3]: ≥ 390 ng/mL
